According to BigSolDB 2.1:

## CC(=O)c1ccc(O)cc1O
In benzene, 293.15 K
  solubility (mole fraction): 0.00045
In benzene, 298.15 K
  solubility (mole fraction): 0.00055
In benzene, 303.15 K
  solubility (mole fraction): 0.00067
In benzene, 308.15 K
  solubility (mole fraction): 0.00082
In benzene, 313.15 K
  solubility (mole fraction): 0.00102
In benzene, 318.15 K
  solubility (mole fraction): 0.00125
In benzene, 323.15 K
  solubility (mole fraction): 0.0015
In benzene, 328.15 K
  solubility (mole fraction): 0.00178
In benzene, 333.15 K
  solubility (mole fraction): 0.00207
In ethanol, 293.15 K
  solubility (mole fraction): 0.118
In ethanol, 298.15 K
  solubility (mole fraction): 0.131
In ethanol, 303.15 K
  solubility (mole fraction): 0.146
In ethanol, 308.15 K
  solubility (mole fraction): 0.162
In ethanol, 313.15 K
  solubility (mole fraction): 0.177
In ethanol, 318.15 K
  solubility (mole fraction): 0.195
In ethanol, 323.15 K
  solubility (mole fraction): 0.216
In ethanol, 328.15 K
  solubility (mole fraction): 0.235
In ethanol, 333.15 K
  solubility (mole fraction): 0.257
In ethyl acetate, 293.15 K
  solubility (mole fraction): 0.118
In ethyl acetate, 298.15 K
  solubility (mole fraction): 0.129
In ethyl acetate, 303.15 K
  solubility (mole fraction): 0.139
In ethyl acetate, 308.15 K
  solubility (mole fraction): 0.152
In ethyl acetate, 313.15 K
  solubility (mole fraction): 0.166
In ethyl acetate, 318.15 K
  solubility (mole fraction): 0.18
In ethyl acetate, 323.15 K
  solubility (mole fraction): 0.199
In ethyl acetate, 328.15 K
  solubility (mole fraction): 0.216
In ethyl acetate, 333.15 K
  solubility (mole fraction): 0.236
In isobutanol, 293.15 K
  solubility (mole fraction): 0.0782
In isobutanol, 298.15 K
  solubility (mole fraction): 0.091
In isobutanol, 303.15 K
  solubility (mole fraction): 0.107
In isobutanol, 308.15 K
  solubility (mole fraction): 0.122
In isobutanol, 313.15 K
  solubility (mole fraction): 0.139
In isobutanol, 318.15 K
  solubility (mole fraction): 0.156
In isobutanol, 323.15 K
  solubility (mole fraction): 0.18
In isobutanol, 328.15 K
  solubility (mole fraction): 0.199
In isobutanol, 333.15 K
  solubility (mole fraction): 0.221
In isopropanol, 293.15 K
  solubility (mole fraction): 0.13
In isopropanol, 298.15 K
  solubility (mole fraction): 0.144
In isopropanol, 303.15 K
  solubility (mole fraction): 0.162
In isopropanol, 308.15 K
  solubility (mole fraction): 0.178
In isopropanol, 313.15 K
  solubility (mole fraction): 0.194
In isopropanol, 318.15 K
  solubility (mole fraction): 0.211
In isopropanol, 323.15 K
  solubility (mole fraction): 0.231
In isopropanol, 328.15 K
  solubility (mole fraction): 0.25
In isopropanol, 333.15 K
  solubility (mole fraction): 0.271
In methanol, 293.15 K
  solubility (mole fraction): 0.103
In methanol, 298.15 K
  solubility (mole fraction): 0.117
In methanol, 303.15 K
  solubility (mole fraction): 0.132
In methanol, 308.15 K
  solubility (mole fraction): 0.148
In methanol, 313.15 K
  solubility (mole fraction): 0.163
In methanol, 318.15 K
  solubility (mole fraction): 0.183
In methanol, 323.15 K
  solubility (mole fraction): 0.203
In methanol, 328.15 K
  solubility (mole fraction): 0.228
In methanol, 333.15 K
  solubility (mole fraction): 0.253
In methyl acetate, 293.15 K
  solubility (mole fraction): 0.114
In methyl acetate, 298.15 K
  solubility (mole fraction): 0.126
In methyl acetate, 303.15 K
  solubility (mole fraction): 0.141
In methyl acetate, 308.15 K
  solubility (mole fraction): 0.155
In methyl acetate, 313.15 K
  solubility (mole fraction): 0.168
In methyl acetate, 318.15 K
  solubility (mole fraction): 0.182
In methyl acetate, 323.15 K
  solubility (mole fraction): 0.201
In methyl acetate, 328.15 K
  solubility (mole fraction): 0.212
In n-butanol, 293.15 K
  solubility (mole fraction): 0.104
In n-butanol, 298.15 K
  solubility (mole fraction): 0.118
In n-butanol, 303.15 K
  solubility (mole fraction): 0.133
In n-butanol, 308.15 K
  solubility (mole fraction): 0.153
In n-butanol, 313.15 K
  solubility (mole fraction): 0.172
In n-butanol, 318.15 K
  solubility (mole fraction): 0.191
In n-butanol, 323.15 K
  solubility (mole fraction): 0.214
In n-butanol, 328.15 K
  solubility (mole fraction): 0.233
In n-butanol, 333.15 K
  solubility (mole fraction): 0.253
In n-propanol, 293.15 K
  solubility (mole fraction): 0.106
In n-propanol, 298.15 K
  solubility (mole fraction): 0.118
In n-propanol, 303.15 K
  solubility (mole fraction): 0.135
In n-propanol, 308.15 K
  solubility (mole fraction): 0.151
In n-propanol, 313.15 K
  solubility (mole fraction): 0.167
In n-propanol, 318.15 K
  solubility (mole fraction): 0.18
In n-propanol, 323.15 K
  solubility (mole fraction): 0.195
In n-propanol, 328.15 K
  solubility (mole fraction): 0.216
In n-propanol, 333.15 K
  solubility (mole fraction): 0.233
In n-propyl acetate, 293.15 K
  solubility (mole fraction): 0.11
In n-propyl acetate, 298.15 K
  solubility (mole fraction): 0.12
In n-propyl acetate, 303.15 K
  solubility (mole fraction): 0.129
In n-propyl acetate, 308.15 K
  solubility (mole fraction): 0.143
In n-propyl acetate, 313.15 K
  solubility (mole fraction): 0.155
In n-propyl acetate, 318.15 K
  solubility (mole fraction): 0.171
In n-propyl acetate, 323.15 K
  solubility (mole fraction): 0.189
In n-propyl acetate, 328.15 K
  solubility (mole fraction): 0.205
In n-propyl acetate, 333.15 K
  solubility (mole fraction): 0.222
